Data: patent publication US20130281398A1, “TREATMENT OF DISEASES BY EPIGENETIC REGULATION” (RVX Therapeutics Inc., priority 2012, published 2013)

Biological target: T1, Brd4 bromodomain 1 (Homo sapiens, UniProt O60885)
T1 construct: Illustrative results with the first bromodomain of Brd4; made in house; host or cells: E. coli BL21(DE3)
Test: TR-FRET inhibition of tetra-acetylated histone H4 binding to Brd4 bromodomain 1
Settings: tetra-acetylated histone H4 peptide and Brd4 bromodomain 1, 2 hours at room temperature
Procedure: Proteins were cloned and overexpressed with a N-terminal 6×His tag, then purified by nickel affinity followed by size exclusion chromatography. Briefly, E. coli BL21(DE3) cells were transformed with a recombinant expression vector encoding N-terminally Nickel affinity tagged bromodomains from Brd2, Brd3, Brd4. Cell cultures were incubated at 37° C. with shaking to the appropriate density and induced overnight with IPTG. The supernatant of lysed cells was loaded onto Ni-IDA column for purification. Eluted protein was pooled, concentrated and further purified by size exclusion chromatography. Fractions representing monomeric protein are pooled, concentrated, aliquoted, and frozen at −80° C. for use in subsequent experiments.
Binding of tetra-acetylated histone H4 and BET bromodomains was confirmed by a Time Resolved Fluorescence Resonance Energy Transfer (TR-FRET) method. N-terminally His-tagged bromodomains (200 nM) and biotinylated tetra-acetylated histone H4 peptide (25-50 nM, Millipore) were incubated in the presence of Europium Cryptate-labeled streptavidin (Cisbio Cat. #610SAKLB) and XL665-labeled monoclonal anti-His antibody (Cisbio Cat. #61 HISXLB) in a white 96 well microtiter plate (Greiner). For inhibition assays, serially diluted test compound was added to these reactions in a 0.2% final concentration of DMSO. Final buffer concentrations were 30 mM HEPES pH 7.4, 30 mM NaCl, 0.3 mM CHAPS, 20 mM phosphate pH 7.0, 320 mM KF, 0.08% BSA). After 2 hours incubation at room temperature, the fluorescence by FRET was measured at 665 and 620 nm by a SynergyH4 plate reader (Biotek). The binding inhibitory activity was shown by a decrease in 665 nm fluorescence relative to 620 nm. IC50 values were determined from a dose response curve.

Row | Compound | FRET activity (<50 uM)
1 | COCCOc1cc(OC)c2c(=O)[nH]c(-c3cc(C)c(O)c(C)c3)nc2c1 [Example 4, 2-(4-hydroxy-3,5-dimethyl-phenyl)-5-methoxy-7-(2-methoxy-ethoxy)-3H-quinazolin-4-one] | Active
2 | COc1cc(OCCOCc2cccnc2)cc2nc(-c3cc(C)c(O)c(C)c3)[nH]c(=O)c12 [Example 6, 2-(4-hydroxy-3,5-dimethylphenyl)-5-methoxy-7-[2-(pyridin-3-ylmethoxy)ethoxy]-3H-quinazolin-4-one] | Active
3 | Cc1cc(-c2nc3cc(OCCN(C)C)ccc3c(=O)[nH]2)cc(C)c1O [Example 7, 7-(2-dimethylamino-ethoxy)-2-(4-hydroxy-3,5-dimethylphenyl)-3H-quinazolin-4-one] | Active
4 | Cc1cc(-c2nc3ccc(Nc4ccncc4)cc3c(=O)[nH]2)cc(C)c1O [Example 8, 2-(4-hydroxy-3,5-dimethyl-phenyl)-6-(pyridin-4-ylamino)-3H-quinazolin-4-one] | Active
5 | Cc1cc(-c2nc3ccc(Nc4ccccn4)cc3c(=O)[nH]2)cc(C)c1O [Example 9, 2-(4-hydroxy-3,5-dimethyl-phenyl)-6-(pyridin-2-ylamino)-3H-quinazolin-4-one] | Inactive
6 | Cc1cc(-c2nc3ccc(CN4CCN(C)CC4)cc3c(=O)[nH]2)cc(C)c1O [Example 10, 2-(4-hydroxy-3,5-dimethylphenyl)-6-((4-methylpiperazin-1-yl)methyl)quinazolin-4(3H)-one] | Active
7 | COc1cc(OC)c2c(=O)[nH]c(-c3cc(C)c(OCCOCc4ccccc4)c(C)c3)nc2n1 [Example 12, 2-(4-(2-(benzyloxy)ethoxy)-3,5-dimethylphenyl)-5,7-dimethoxypyrido[2,3-d]pyrimidin-4(3H)-one] | Inactive
8 | COc1cc(OC)c2c(=O)[nH]c(-c3cc(C)c(OCC(O)CO)c(C)c3)nc2c1 (stereo not drawn) [Example 16, 2-[4-(2,3-Dihydroxy-propoxy)-3,5-dimethyl-phenyl]-5,7-dimethoxy-3H-quinazolin-4-one] | Active
9 | COc1cc(OC)c2c(=O)[nH]c(-c3ccc(OCCO)cc3)nc2c1 [Example 17, 2-[4-(2-hydroxy-ethoxy)-phenyl]-5,7-dimethoxy-3H-quinazolin-4-one] | Active
10 | COc1cc(OC)c2c(=O)[nH]c(-c3ccc(OCCO)c4ccccc34)nc2c1 [Example 18, 2-[4-(2-hydroxy-ethoxy)-naphthalen-1-yl]-5,7-dimethoxy-3H-quinazolin-4-one] | Active
11 | COc1cc(OCCOCc2ccccc2)cc2nc(-c3cc(C)c(OCCO)c(C)c3)[nH]c(=O)c12 [Example 20, 7-(2-benzyloxy-ethoxy)-2-[4-(2-hydroxy-ethoxy)-3,5-dimethyl-phenyl]-5-methoxy-3H-quinazolin-4-one] | Active
12 | COc1ccc(NC(=O)COc2c(C)cc(-c3nc4cc(OC)cc(OC)c4c(=O)[nH]3)cc2C)cc1 [Example 23, 2-[4-(5,7-Dimethoxy-4-oxo-3,4-dihydro-quinazolin-2-yl)-2,6-dimethyl-phenoxy]-N-(4-methoxy-phenyl)-acetamide] | Active
13 | COc1cc(OC)c2c(=O)[nH]c(-c3cc(C)c(OCC(=O)NCc4ccccc4)c(C)c3)nc2c1 [Example 24, N-benzyl-2-[4-(5,7-dimethoxy-4-oxo-3,4-dihydroquinazolin-2-yl)-2,6-dimethylphenoxy]acetamide] | Active
14 | COc1cc(OC)c2c(=O)[nH]c(-c3cc(C)c(OCCCCO)c(C)c3)nc2c1 [Example 25, 2-[4-(4-hydroxy-butoxy)-3,5-dimethyl-phenyl]-5,7-dimethoxy-3H-quinazolin-4-one] | Active
15 | Cc1cc(-c2nc3cccc(Cl)c3c(=O)[nH]2)cc(C)c1OCCO [Example 27, 5-chloro-2-(4-(2-hydroxyethoxy)-3,5-dimethylphenyl)quinazolin-4(3H)-one] | Inactive
16 | COc1ccc2c(=O)[nH]c(-c3cc(C)c(OCCO)c(C)c3)nc2c1 [Example 28, 2-(4-(2-hydroxyethoxy)-3,5-dimethylphenyl)-7-methoxyquinazolin-4(3H)-one] | Inactive
17 | COc1cc(OC)c2c(=O)[nH]c(-c3ccc(OCCNc4nnc(-c5ccccc5)[nH]4)c(C)c3)nc2c1 [Example 29, 5,7-Dimethoxy-2-{3-methyl-4-[2-(5-phenyl-4H-[1,2,4]triazol-3-ylamino)-ethoxy]-phenyl}-3H-quinazolin-4-one] | Active
18 | COc1cc(OC)c2c(=O)[nH]c(-c3cc(C)c(OCCNC=O)c(C)c3)cc2c1 [Example 35, N-{2-[4-(6,8-dimethoxy-1-oxo-1,2-dihydro-isoquinolin-3-yl)-2,6-dimethyl-phenoxy]-ethyl}-formamide] | Active
19 | CNCCOc1c(C)cc(-c2nc3cc(OC)cc(OC)c3c(=O)[nH]2)cc1C [Example 36, 2-(3,5-dimethyl-4-(2-(methylamino)ethoxy)phenyl)-5,7-dimethoxyquinazolin-4(3H)-one] | Active

Next, values leading:

Row | FRET activity (<50 uM) | Compound
20 | Active | COc1cc(OCCN)cc2nc(-c3cc(C)c(O)c(C)c3)[nH]c(=O)c12 [Example 3, 7-(2-amino-ethoxy)-2-(4-hydroxy-3,5-dimethyl-phenyl)-5-methoxy-3H-quinazolin-4-one]
21 | Active | Cc1cc(-c2nc3ccc(CNS(C)(=O)=O)cc3c(=O)[nH]2)cc(C)c1O [Example 11, N-((2-(4-hydroxy-3,5-dimethylphenyl)-4-oxo-3,4-dihydroquinazolin-6-yl)methyl)methanesulfonamide]
22 | Active | Cc1cc(C)c2c(=O)[nH]c(-c3cc(C)c(OCCO)c(C)c3)nc2n1 [Example 13, 2-(4-(2-hydroxyethoxy)-3,5-dimethylphenyl)-5,7-dimethylpyrido[2,3-d]pyrimidin-4(3H)-one]
23 | Inactive | Cc1cc(-c2nc3cc(F)cc(F)c3c(=O)[nH]2)cc(C)c1OCCO [Example 14, 5,7-difluoro-2-(4-(2-hydroxyethoxy)-3,5-dimethylphenyl)quinazolin-4(3H)-one]
24 | Inactive | COc1cc(OC)c2c(=O)[nH]c(-c3ccc4oc(CO)cc4c3)nc2c1 [Example 19, 2-(2-hydroxymethyl-benzofuran-5-yl)-5,7-dimethoxy-3H-quinazolin-4-one]
25 | Inactive | COc1cc(OCCOCc2ccccc2)cc2nc(-c3ccc4oc(CO)cc4c3)[nH]c(=O)c12 [Example 21, 7-(2-benzyloxy-ethoxy)-2-(2-hydroxymethyl-benzofuran-5-yl)-5-methoxy-3H-quinazolin-4-one]
26 | Active | CNC(=O)COc1c(C)cc(-c2nc3cc(OC)cc(OC)c3c(=O)[nH]2)cc1C [Example 22, 2-[4-(5,7-dimethoxy-4-oxo-3,4-dihydro-quinazolin-2-yl)-2,6-dimethyl-phenoxy]-N-methyl-acetamide]
27 | Inactive | Cc1cc(-c2nc3cc(Cl)ccc3c(=O)[nH]2)cc(C)c1OCCO [Example 26, 7-chloro-2-(4-(2-hydroxyethoxy)-3,5-dimethylphenyl)quinazolin-4(3H)-one]
28 | Active | COc1cc(OC)c2c(=O)[nH]c(-c3cc(C)c(OCCNc4nc(C)no4)c(C)c3)nc2c1 [Example 30, 2-{3,5-Dimethyl-4-[2-(3-methyl-[1,2,4]oxadiazol-5-ylamino)-ethoxy]-phenyl}-5,7-dimethoxy-3H-quinazolin-4-one]
29 | Active | COc1cc(OC)c2c(=O)[nH]c(-c3cc(C)c(OCCNC(C)=O)c(C)c3)nc2n1 [Example 31, N-{2-[4-(5,7-dimethoxy-4-oxo-3,4-dihydro-pyrido[2,3-d]pyrimidin-2-yl)-2,6-dimethyl-phenoxy]-ethyl}-acetamide]
30 | Active | COc1cc(OC)c2c(=O)[nH]c(-c3cc(C)c(CNC(C)=O)c(C)c3)nc2n1 [Example 33, N-[4-(5,7-dimethoxy-4-oxo-3,4-dihydro-pyrido[2,3-d]pyrimidin-2-yl)-2,6-dimethyl-benzyl]-acetamide]
31 | Inactive | COc1cc(OC)c2c(=O)[nH]c(-c3cc(C)c(OCCNCC(F)(F)F)c(C)c3)nc2c1 [Example 34, 2-{3,5-dimethyl-4-[2-(2,2,2-trifluoro-ethylamino)-ethoxy]-phenyl}-5,7-dimethoxy-3H-quinazolin-4-one]
32 | Active | COc1cc(OC)c2c(=O)[nH]c(-c3cc(C)c(OCCNS(=O)(=O)C(C)C)c(C)c3)nc2c1 [Example 37, N-(2-(4-(5,7-dimethoxy-4-oxo-3,4-dihydroquinazolin-2-yl)-2,6-dimethylphenoxy)ethyl)propane-2-sulfonamide]
33 | Active | COc1cc(OC)c2c(=O)[nH]c(-c3ccc(OCCNC(C)=O)c(C)c3)nc2c1 [Example 39, N-(2-(4-(5,7-dimethoxy-4-oxo-3,4-dihydroquinazolin-2-yl)-2-methylphenoxy)ethyl)acetamide]
